Consider 17 compounds from patent publication US20260347348A1, “JAK1/JAK2/TYK2 Inhibitors For Topical Treatment of Dermatological Diseases” (Hangzhou Highlightll Pharmaceutical Co., Ltd, priority 2022, published 2026).

For data set [1], the target named is T1, JAK1 (Homo sapiens, UniProt P23458). The data set is described as follows: JAK1 biochemical test (33P-ATP filter binding kinase assay). Conditions: room temperature, 2 hours. Here is the method:
(§1) The tests were conducted by Reaction Biology Corp, Malvern, PA (Anastassiadis et al. Nat Biotechnol. 2011; 29(11):1039-45). The step is briefly described as follows.
(§2) Basic reaction buffer: 20 mM Hepes (pH 7.5), 10 mM MgCl2, 1 mM EGTA, 0.02% Brij35, 0.02 mg/ml BSA, 0.1 mM Na3VO4, 2 mM DTT and 1% DMSO. The required cofactor was added to each kinase reaction respectively.
(§3) • 1. Preparing the designated substrate in the newly prepared basic reaction buffer; • 2. Transferring the required cofactor to the above matrix solution; • 3. Transferring the designated kinase to the substrate solution and mixing well slightly; • 4. Transferring a compound of formulae I-III in DMSO to the kinase reaction mixture with Acoustic technique (Echo550; nanoliter range), culturing for 20 minutes at room temperature; • 5. Introducing ^33P-ATP (specific activity: 10 μCi/μl) to the reaction mixture to trigger a reaction; • 6. Culturing at room temperature and conducting a kinase reaction for 2 hours; • 7. Plotting the reaction on P81 ion exchange paper; • 8. Testing the kinase activity with a filter binding assay.

The subject of a further data set is TYK2/JAK1/JAK2. The data set is described as follows: TYK2/JAK1/JAK2 biochemical tests, comparative summary. Conditions: for fold less potent than its 2-((pyrazol-4-yl)amino) analog (example 18): compared with example 18; for fold less potent TYK2/JAK1/JAK2 inhibitor compared to analogs of Formula II (example 4) and Formula III (example 18): compared with examples 4 and 18. Here is the method: as §1, §2, §3

A further data set addresses JAK2 (Homo sapiens, UniProt O60674). Kind of data set: JAK2 biochemical test (33P-ATP filter binding kinase assay). Conditions: room temperature, 2 hours. Here is the method: as §1, §2, §3
The target in a further data set is TYK2 (Homo sapiens, UniProt P29597). Kind of data set: TYK2 biochemical test (33P-ATP filter binding kinase assay). Conditions: room temperature, 2 hours. Here is the method:
as §1, §2, §3

Data set [2] addresses T1, JAK1. The data set is described as follows: JAK1 cellular ELISA assay using PBMC cells (IL-6 stimulated STAT3 phosphorylation). Format: cell-based. As to conditions: IL-6 100 ng/ml, 25 min. How it is done: Purpose: test cellular JAK1 activity using the IL-6 stimulated STAT3 phosphorylation assay in PBMC cells.
• 1. Plate PBMC cells to 96-well plate at density of ~300,000 cell/well; • 2. Add different concentrations of test article to wells, maintain in incubator at 37° C. and 5% CO2 for 1 hour; • 3. Add IL-6 (final concentration: 100 ng/ml) to stimulate for 25 min in the above incubator; • 4. After stimulation, transfer the suspension to 1.5 mL tube, centrifuge at 200 g for 5 min, collect cells, add 100 μL 1× lysate, lyse on ice for 1 hour; • 5. Centrifuge at 4° C. and 12000 rpm for 10 min, take the supernatant and analyze according to instructions of the ELISA kit.
A general note: In an ELISA, binding on a coated surface is turned into a signal by an enzyme label.

For data set [3] the following is noted: approved oral agents; topical formulation of ruxolitinib; cited from earlier work.

Sequence of JAK2 (O60674 whole entry): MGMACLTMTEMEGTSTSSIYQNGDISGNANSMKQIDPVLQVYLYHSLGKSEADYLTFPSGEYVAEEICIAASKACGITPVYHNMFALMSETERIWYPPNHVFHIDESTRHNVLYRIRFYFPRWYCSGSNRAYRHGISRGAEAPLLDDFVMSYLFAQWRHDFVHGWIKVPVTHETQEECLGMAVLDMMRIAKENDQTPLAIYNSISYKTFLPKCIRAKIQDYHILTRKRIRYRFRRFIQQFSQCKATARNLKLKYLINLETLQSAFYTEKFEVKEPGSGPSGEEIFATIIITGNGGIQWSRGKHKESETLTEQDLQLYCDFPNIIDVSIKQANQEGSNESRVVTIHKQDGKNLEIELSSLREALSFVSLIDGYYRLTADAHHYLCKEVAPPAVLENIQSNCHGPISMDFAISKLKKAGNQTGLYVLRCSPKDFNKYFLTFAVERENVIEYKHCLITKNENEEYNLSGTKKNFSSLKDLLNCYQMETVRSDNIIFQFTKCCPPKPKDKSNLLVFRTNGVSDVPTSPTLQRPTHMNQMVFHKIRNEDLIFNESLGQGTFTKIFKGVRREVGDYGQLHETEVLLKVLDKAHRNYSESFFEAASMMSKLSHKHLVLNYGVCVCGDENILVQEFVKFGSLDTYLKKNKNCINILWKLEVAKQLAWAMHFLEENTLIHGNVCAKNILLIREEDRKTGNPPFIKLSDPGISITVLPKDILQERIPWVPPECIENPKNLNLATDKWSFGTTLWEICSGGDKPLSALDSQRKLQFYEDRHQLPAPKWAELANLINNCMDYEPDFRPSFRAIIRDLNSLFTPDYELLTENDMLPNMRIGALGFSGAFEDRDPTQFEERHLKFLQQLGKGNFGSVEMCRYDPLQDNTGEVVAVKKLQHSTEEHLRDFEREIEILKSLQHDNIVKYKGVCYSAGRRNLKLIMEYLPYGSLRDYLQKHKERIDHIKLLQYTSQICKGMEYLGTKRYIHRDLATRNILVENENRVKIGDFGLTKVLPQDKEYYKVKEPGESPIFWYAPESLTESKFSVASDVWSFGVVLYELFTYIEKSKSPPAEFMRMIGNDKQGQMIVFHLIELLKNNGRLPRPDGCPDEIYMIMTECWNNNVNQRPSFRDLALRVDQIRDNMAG
Sequence of TYK2 (P29597 whole entry): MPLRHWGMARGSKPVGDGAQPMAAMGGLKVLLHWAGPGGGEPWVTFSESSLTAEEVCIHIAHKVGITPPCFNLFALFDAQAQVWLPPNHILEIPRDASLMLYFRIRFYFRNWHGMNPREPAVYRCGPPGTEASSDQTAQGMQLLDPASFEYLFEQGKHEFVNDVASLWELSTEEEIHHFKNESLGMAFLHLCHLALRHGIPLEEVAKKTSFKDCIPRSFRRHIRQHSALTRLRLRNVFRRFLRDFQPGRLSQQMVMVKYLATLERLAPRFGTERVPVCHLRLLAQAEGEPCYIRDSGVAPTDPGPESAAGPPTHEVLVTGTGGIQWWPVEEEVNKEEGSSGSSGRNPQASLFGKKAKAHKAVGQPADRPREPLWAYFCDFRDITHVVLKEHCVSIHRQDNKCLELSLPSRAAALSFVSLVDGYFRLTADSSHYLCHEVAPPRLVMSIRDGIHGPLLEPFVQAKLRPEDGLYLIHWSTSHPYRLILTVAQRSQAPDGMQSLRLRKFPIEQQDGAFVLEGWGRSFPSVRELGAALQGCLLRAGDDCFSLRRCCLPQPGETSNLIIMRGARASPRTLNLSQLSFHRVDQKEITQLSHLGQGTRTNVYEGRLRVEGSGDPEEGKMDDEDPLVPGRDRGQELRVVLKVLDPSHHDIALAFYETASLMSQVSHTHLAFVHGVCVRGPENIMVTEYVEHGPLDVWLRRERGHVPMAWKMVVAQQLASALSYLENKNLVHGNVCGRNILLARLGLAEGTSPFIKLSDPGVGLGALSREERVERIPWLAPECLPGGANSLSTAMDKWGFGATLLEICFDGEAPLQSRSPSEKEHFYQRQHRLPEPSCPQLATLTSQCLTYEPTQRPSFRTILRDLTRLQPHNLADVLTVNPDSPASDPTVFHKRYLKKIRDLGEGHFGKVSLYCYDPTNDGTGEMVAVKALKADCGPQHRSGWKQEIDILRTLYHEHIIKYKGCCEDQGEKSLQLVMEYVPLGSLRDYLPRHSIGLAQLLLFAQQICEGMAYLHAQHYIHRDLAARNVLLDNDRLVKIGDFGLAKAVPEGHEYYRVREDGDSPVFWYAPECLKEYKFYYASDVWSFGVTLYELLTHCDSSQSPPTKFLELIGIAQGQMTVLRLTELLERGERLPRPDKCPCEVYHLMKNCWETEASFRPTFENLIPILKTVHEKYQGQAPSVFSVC
T1 sequence (P23458 whole entry): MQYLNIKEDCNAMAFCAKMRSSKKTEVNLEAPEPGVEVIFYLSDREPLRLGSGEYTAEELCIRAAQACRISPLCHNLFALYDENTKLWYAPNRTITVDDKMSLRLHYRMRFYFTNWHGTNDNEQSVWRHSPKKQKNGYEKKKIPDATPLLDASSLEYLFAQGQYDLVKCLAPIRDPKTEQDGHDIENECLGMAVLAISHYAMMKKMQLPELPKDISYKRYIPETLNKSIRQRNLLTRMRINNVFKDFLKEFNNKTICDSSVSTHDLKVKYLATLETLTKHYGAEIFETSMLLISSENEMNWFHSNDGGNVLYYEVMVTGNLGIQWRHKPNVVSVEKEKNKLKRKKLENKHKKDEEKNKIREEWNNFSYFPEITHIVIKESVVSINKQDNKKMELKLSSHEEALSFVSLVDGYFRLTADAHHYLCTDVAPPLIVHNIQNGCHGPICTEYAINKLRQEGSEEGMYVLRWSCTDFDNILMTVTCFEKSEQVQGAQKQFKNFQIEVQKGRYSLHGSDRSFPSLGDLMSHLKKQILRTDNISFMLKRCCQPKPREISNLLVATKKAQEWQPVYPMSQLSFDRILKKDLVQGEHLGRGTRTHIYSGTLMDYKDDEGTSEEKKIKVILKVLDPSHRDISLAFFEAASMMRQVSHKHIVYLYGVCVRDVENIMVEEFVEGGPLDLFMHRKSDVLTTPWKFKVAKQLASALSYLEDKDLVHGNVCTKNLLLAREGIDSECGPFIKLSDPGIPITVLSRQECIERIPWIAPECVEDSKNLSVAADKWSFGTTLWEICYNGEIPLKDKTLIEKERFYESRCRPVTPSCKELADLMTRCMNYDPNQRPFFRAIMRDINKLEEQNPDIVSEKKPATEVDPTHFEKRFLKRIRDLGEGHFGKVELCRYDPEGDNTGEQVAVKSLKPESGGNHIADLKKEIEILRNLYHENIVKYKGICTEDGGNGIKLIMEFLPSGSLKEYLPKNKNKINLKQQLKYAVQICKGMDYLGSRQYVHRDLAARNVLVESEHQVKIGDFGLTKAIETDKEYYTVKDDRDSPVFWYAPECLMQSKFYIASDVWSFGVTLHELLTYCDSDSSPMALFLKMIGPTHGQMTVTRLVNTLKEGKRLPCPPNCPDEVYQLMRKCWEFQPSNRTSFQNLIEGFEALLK

By IC50 is commonly meant the point on the concentration scale where inhibition reaches its midpoint. The low end stands for higher potency, the high end for lower potency. With `Cc1cnc(Nc2cnn(CC3COC3)c2)nc1-c1cnn([C@H](CC#N)C2CCCC2)c1` [Compound 9, (R)-3-cyclopentyl-3-(4-(5-methyl-2-((1-(oxetan-3-ylmethyl)-1H-pyrazol-4-yl)amino)pyrimidin-4-yl)-1H-pyrazol-1-yl) propanenitrile], the IC50 at JAK1 [1], at JAK2 and on TYK2 was less than 1 nM each time. Also, in the data set with TYK2/JAK1/JAK2, the “TYK2/JAK1/JAK2 inhibition (in words)” value is given as “potent TYK2/JAK1/JAK2 inhibitors”.
`Cc1cnc(Nc2cnn(CCO)c2)nc1-c1cnn([C@H](CC#N)C2CCCC2)c1` [Compound 24, (R)-3-cyclopentyl-3-(4-(2-((1-(2-hydroxyethyl)-1H-pyrazol-4-yl)amino)-5-methylpyrimidin-4-yl)-1H-pyrazol-1-yl)propanenitrile]: the 50% inhibitory concentration (IC50) on JAK1 [1] was less than 1 nM; against JAK1 [2], less than 500 nM; on JAK2, less than 1 nM; on TYK2, less than 1 nM. The “TYK2/JAK1/JAK2 inhibition (in words)” value with TYK2/JAK1/JAK2 was “potent TYK2/JAK1/JAK2 inhibitors”.
`Cc1cnc(Nc2cnoc2)nc1-c1cnn([C@H](CC#N)C2CCCC2)c1` [Compound 5, (R)-3-cyclopentyl-3-(4-(2-(isoxazol-4-ylamino)-5-methylpyrimidin-4-yl)-1H-pyrazol-1-yl) propanenitrile]: the IC50 at JAK1 [1], on JAK2 and at TYK2 was less than 1 nM in each case. In the data set with TYK2/JAK1/JAK2, the “TYK2/JAK1/JAK2 inhibition (in words)” value is on record as “potent TYK2/JAK1/JAK2 inhibitors”.
On to `CCS(=O)(=O)N1CC(CC#N)(n2cc(-c3nc(Nc4ccn(C)n4)ncc3C)cn2)C1.Cl` [Compound 14, 2-(1-(ethylsulfonyl)-3-(4-(5-methyl-2-((1-methyl-1H-pyrazol-3-yl)amino)pyrimidin-4-yl)-1H-pyrazol-1-yl)azetidin-3-yl)acetonitrile hydrochloride, reference compound], for which the IC50 at JAK1 [1] and at TYK2 was more than 10 nM in each case. The “fold less potent than its 2-((pyrazol-4-yl)amino) analog (example 18)” value with TYK2/JAK1/JAK2 is more than 10 ×.
On to `CC[C@@H]1CN(C(=O)NCC(F)(F)F)C[C@@H]1c1cnc2cnc3[nH]ccc3n12` [upadacitinib], for which the “black box warnings / risks” value in data set [3] is “black box warnings of risks such as serious infections, non-melanoma skin cancers, thrombosis, and thrombocytopenia”.
Consider `Cc1cnc(Nc2ccc3ncn(C)c3c2)nc1-c1cnn([C@H](CC#N)C2CCCC2)c1` [Compound 23, (R)-3-cyclopentyl-3-(4-(5-methyl-2-((1-methyl-1H-benzo[d]imidazol-6-yl)amino)pyrimidin-4-yl)-1H-pyrazol-1-yl)propanenitrile], for which the half-maximal inhibitory concentration (IC50) at JAK1 [1] is less than 1 nM; at JAK1 [2], less than 500 nM; on JAK2, less than 1 nM; at TYK2 it was less than 1 nM. Besides, in the data set on TYK2/JAK1/JAK2, the “TYK2/JAK1/JAK2 inhibition (in words)” value was “potent TYK2/JAK1/JAK2 inhibitors”.
Regarding `N#CC[C@H](C1CCCC1)n1cc(-c2nc(Nc3cnn(C4CCOCC4)c3)ncc2Cl)cn1` [Compound 11], the “TYK2/JAK1/JAK2 inhibition (in words)” value in the data set with TYK2/JAK1/JAK2 is on record as “potent TYK2/JAK1/JAK2 inhibitors”. At TYK2, this compound gave a concentration for half-maximal inhibition (IC50) of less than 1 nM.
On to `CCCS(=O)(=O)N[C@H]1C[C@@H](N(C)c2nc(Nc3cnn(C)c3)ncc2C)C1` [Compound 20, N-((1s,3s)-3-(methyl(5-methyl-2-((1-methyl-1H-pyrazol-4-yl)amino)pyrimidin-4-yl)amino)cyclobutyl)propane-1-sulfonamide, reference compound], for which the IC50 at JAK1 [1], on JAK2 and at TYK2 was more than 10 nM in each case. For the same compound, in the data set with TYK2/JAK1/JAK2, the “fold less potent TYK2/JAK1/JAK2 inhibitor compared to analogs of Formula II (example 4) and Formula III (example 18)” value was more than 10 ×.
On to `Cc1cnc(Nc2cnn(C)c2)nc1N(C)[C@H]1CN(C(=O)CC#N)CC[C@H]1C` [Compound 22, 3-((3R,4R)-4-methyl-3-(methyl(5-methyl-2-((1-methyl-1H-pyrazol-4-yl)amino)pyrimidin-4-yl)amino)piperidin-1-yl)-3-oxopropanenitrile, reference compound], for which the IC50 at JAK1 [1] and on TYK2 was more than 100 nM each time. Moreover, in the data set with TYK2/JAK1/JAK2, the “fold less potent TYK2/JAK1/JAK2 inhibitor compared to analogs of Formula II (example 4) and Formula III (example 18)” value is more than 100 ×.
With `Cc1cnc(Nc2cnn(C3COC3)c2)nc1-c1cnn([C@H](CC#N)C2CCCC2)c1` [Compound 8, (R)-3-cyclopentyl-3-(4-(5-methyl-2-((1-(oxetan-3-yl)-1H-pyrazol-4-yl)amino)pyrimidin-4-yl)-1H-pyrazol-1-yl) propanenitrile], the concentration for half-maximal inhibition (IC50) on JAK1 [1], on JAK2 and on TYK2 was less than 1 nM each time. In addition, the “TYK2/JAK1/JAK2 inhibition (in words)” value in the data set on TYK2/JAK1/JAK2 is listed as “potent TYK2/JAK1/JAK2 inhibitors”.
Regarding `Cc1cnc(Nc2cnn(C3CCOCC3)c2)nc1-c1cnn([C@H](CC#N)C2CCCC2)c1` [Compound 7, (R)-3-cyclopentyl-3-(4-(5-methyl-2-((1-(tetrahydro-2H-pyran-4-yl)-1H-pyrazol-4-yl)amino)pyrimidin-4-yl)-1H-pyrazol-1-yl)propanenitrile], the IC50 on JAK1 [1], on JAK2 and on TYK2 was less than 1 nM each time. Moreover, in the data set on TYK2/JAK1/JAK2, the “TYK2/JAK1/JAK2 inhibition (in words)” value was “potent TYK2/JAK1/JAK2 inhibitors”.
On to `CNS(=O)(=O)C[C@H]1CC[C@H](N(C)c2nc(Nc3cnn(C)c3)ncc2C)CC1` [Compound 21, N-methyl-1-((1r,4r)-4-(methyl(5-methyl-2-((1-methyl-1H-pyrazol-4-yl)amino)pyrimidin-4-yl)amino)cyclohexyl)methanesulfonamide, reference compound], for which the IC50 on JAK1 [1], at JAK2 and at TYK2 was more than 100 nM each time. Further, the “fold less potent TYK2/JAK1/JAK2 inhibitor compared to analogs of Formula II (example 4) and Formula III (example 18)” value in the data set on TYK2/JAK1/JAK2 was more than 100 ×.
For the compound `CCCS(=O)(=O)N[C@H]1C[C@@H](N(C)c2ncnc3[nH]ccc23)C1` [abrocitinib], the “black box warnings / risks” value in data set [3] was “black box warnings of risks such as serious infections, non-melanoma skin cancers, thrombosis, and thrombocytopenia”.
On to `Cc1cnc(Nc2cnn(CC3CCOCC3)c2)nc1-c1cnn([C@H](CC#N)C2CCCC2)c1` [Compound 6, (R)-3-cyclopentyl-3-(4-(5-methyl-2-((1-((tetrahydro-2H-pyran-4-yl)methyl)-1H-pyrazol-4-yl)amino)pyrimidin-4-yl)-1H-pyrazol-1-yl)propanenitrile], for which the IC50 at JAK1 [1], on JAK2 and at TYK2 was less than 1 nM throughout. In addition, the “TYK2/JAK1/JAK2 inhibition (in words)” value with TYK2/JAK1/JAK2 is on record as “potent TYK2/JAK1/JAK2 inhibitors”.
With `CCS(=O)(=O)N1CC(CC#N)(n2cc(-c3nc(Nc4cn(C)nn4)ncc3C)cn2)C1` [Compound 19, 2-(1-(ethylsulfonyl)-3-(4-(5-methyl-2-((1-methyl-1H-1,2,3-triazol-4-yl)amino)pyrimidin-4-yl)-1H-pyrazol-1-yl)azetidin-3-yl)acetonitrile, reference compound], the IC50 at JAK1 [1], at JAK2 and on TYK2 was more than 10 nM throughout. For the same compound, the “fold less potent than its 2-((pyrazol-4-yl)amino) analog (example 18)” value with TYK2/JAK1/JAK2 is listed as more than 10 ×.
Regarding `CCS(=O)(=O)N1CC(CC#N)(n2cc(-c3nc(Nc4cnn(C)c4)ncc3C3CC3)cn2)C1` [Compound 2, 2-(3-(4-(5-cyclopropyl-2-((1-methyl-1H-pyrazol-4-yl)amino)pyrimidin-4-yl)-1H-pyrazol-1-yl)-1-(ethylsulfonyl)azetidin-3-yl) acetonitrile], the IC50 at JAK1 [1] is less than 10 nM; at JAK2, less than 1 nM; at TYK2 it was less than 1 nM. For the same compound, the “TYK2/JAK1/JAK2 inhibition (in words)” value in the data set with TYK2/JAK1/JAK2 is on record as “potent TYK2/JAK1/JAK2 inhibitors”.
On to `CCS(=O)(=O)N1CC(CC#N)(n2cc(-c3nc(Nc4ccc5ncn(C)c5c4)ncc3C)cn2)C1` [Compound 26, 2-(1-(ethylsulfonyl)-3-(4-(5-methyl-2-((1-methyl-1H-benzo[d]imidazol-6-yl)amino)pyrimidin-4-yl)-1H-pyrazol-1-yl)azetidin-3-yl)acetonitrile], for which the IC50 at JAK1 [1] was less than 1 nM. For the same compound, the “TYK2/JAK1/JAK2 inhibition (in words)” value in the data set on TYK2/JAK1/JAK2 is listed as “potent TYK2/JAK1/JAK2 inhibitors”.
